Measurements from ChEMBL document CHEMBL1201862, “PubChem BioAssay data set” (2004).
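Growth conditions: 96-well plates. Treatment: test compound, 48 hours, 5 concentrations. Analysis: linear interpolation between bracketing concentrations; unreached endpoints set to highest concentration. At the GI50, growth is halved.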 Activity calls are given as the source filed them. No stated cut-off is given here; in the data, active = GI50 up to about 1.1 µM and inactive = higher.

What was measured:
Assay in all cases: NCI anticancer screen, dose series, 48 h
M14 = test system: M14
HCC 2998 = test system: HCC 2998
SW-620 = test system: SW-620
A498 = test system: A498
EKVX = test system: EKVX
HCT-116 = test system: HCT-116
SN12C = test system: SN12C
HOP-62 = test system: HOP-62
LOX IMVI = test system: LOX IMVI
OVCAR-8 = test system: OVCAR-8
OVCAR-3 = test system: OVCAR-3
NCI-H522 = test system: NCI-H522
DU-145 = test system: DU-145
K562 = test system: K562
DLD-1 = test system: DLD-1
HT-29 = test system: HT-29
HL-60 = test system: HL-60
NCI-H460 = test system: NCI-H460
786-0 = test system: 786-0
DMS-273 = test system: DMS-273
HOP-92 = test system: HOP-92
HCT-15 = test system: HCT-15
NCI-H226 = test system: NCI-H226
SK-MEL-2 = test system: SK-MEL-2
U-251 = test system: U-251
ACHN = test system: ACHN
SF-539 = test system: SF-539
PC-3 = test system: PC-3
OVCAR-4 = test system: OVCAR-4
TK-10 = test system: TK-10
UACC-257 = test system: UACC-257
HOP-18 = test system: HOP-18
SNB-78 = test system: SNB-78
SK-OV-3 = test system: SK-OV-3
LXFL 529 = test system: LXFL 529
CAKI-1 = test system: CAKI-1
IGROV-1 = test system: IGROV-1
SF-268 = test system: SF-268
SNB-75 = test system: SNB-75
COLO 205 = test system: COLO 205
SR = test system: SR
NCI-H23 = test system: NCI-H23
KM12 = test system: KM12
MOLT-4 = test system: MOLT-4
UACC-62 = test system: UACC-62
A549 = test system: A549
SF-295 = test system: SF-295
KM-20L2 = test system: KM-20L2
SNB-19 = test system: SNB-19
UO-31 = test system: UO-31
RPMI-8226 = test system: RPMI-8226
RXF 631 = test system: RXF 631
Malme-3M = test system: Malme-3M
RXF 393 = test system: RXF 393
SK-MEL-5 = test system: SK-MEL-5
SK-MEL-28 = test system: SK-MEL-28
M19-MEL = test system: M19-MEL
CCRF-CEM = test system: CCRF-CEM
OVCAR-5 = test system: OVCAR-5
XF498 = test system: XF498
DMS-114 = test system: DMS-114

`COC1=C2CC(C)CC(OC)C(O)C(C)/C=C(\C)C(OC(N)=O)C(OC)/C=C\C=C(/C)C(=O)NC(=C(/C=N/N3CCCCC3)C1=O)C2=O` (stereo not given) was tested, and the GI50 (M14) was 18.7 µM (inactive), the GI50 (HCC 2998) was 6.7 µM (inactive) and the GI50 (SW-620) was 2.82 µM (inactive). The GI50 (A498) was 23.9 µM (inactive), the GI50 (EKVX) was 8.43 µM (inactive) and the GI50 (HCT-116) was 3.25 µM (inactive). For the same molecule, the GI50 (SN12C) was 4.5 µM (inactive), the GI50 (HOP-62) was 18.3 µM (inactive) and the GI50 (LOX IMVI) was 8.55 µM (inactive). The GI50 (OVCAR-8) was 3.83 µM (inactive), the GI50 (OVCAR-3) was 2.15 µM (inactive) and the GI50 (NCI-H522) was 2.55 µM (inactive). The GI50 (DU-145) was 18.3 µM (inactive), the GI50 (K562) was 5.4 µM (inactive) and the GI50 (DLD-1) was 8.47 µM (inactive). The GI50 (HT-29) was 6.55 µM (inactive), the GI50 (HL-60) was 1.95 µM (inactive) and the GI50 (NCI-H460) was 19.5 µM (inactive). For the same molecule, the GI50 (786-0) was 10.2 µM (inactive), the GI50 (DMS-273) was 13.6 µM (inactive) and the GI50 (HOP-92) was 15.7 µM (inactive). For the same molecule, the GI50 (HCT-15) was 12.2 µM, the GI50 (NCI-H226) was 12.4 µM (inactive) and the GI50 (SK-MEL-2) was 17 µM (inactive). For the same molecule, the GI50 (U-251) was 6.4 µM (inactive), the GI50 (ACHN) was 15.4 µM (inactive) and the GI50 (SF-539) was 7.33 µM (inactive). The GI50 (PC-3) was 15.3 µM (inactive), the GI50 (OVCAR-4) was 5.26 µM (inactive) and the GI50 (TK-10) was 27.9 µM (inactive). For the same molecule, the GI50 (UACC-257) was 11.9 µM (inactive), the GI50 (HOP-18) was 11.9 µM (inactive) and the GI50 (SNB-78) was 12.4 µM (inactive). The GI50 (SK-OV-3) was 21.9 µM (inactive), the GI50 (LXFL 529) was 10 µM (inactive) and the GI50 (CAKI-1) was 15.7 µM (inactive). For the same molecule, the GI50 (IGROV-1) was 5.5 µM (inactive), the GI50 (SF-268) was 6.18 µM (inactive) and the GI50 (SNB-75) was 17.8 µM (inactive). The GI50 (COLO 205) was 2.93 µM (inactive), the GI50 (SR) was 2.59 µM (inactive) and the GI50 (NCI-H23) was 15.8 µM (inactive). For the same molecule, the GI50 (KM12) was 11.6 µM (inactive), the GI50 (MOLT-4) was 2.62 µM (inactive) and the GI50 (UACC-62) was 18.6 µM (inactive). The GI50 (A549) was 21.5 µM (inactive), the GI50 (SF-295) was 13.5 µM (inactive) and the GI50 (KM-20L2) was 5 µM (inactive). For the same molecule, the GI50 (SNB-19) was 16.1 µM (inactive), the GI50 (UO-31) was 10.8 µM (inactive) and the GI50 (RPMI-8226) was 5.55 µM (inactive). The GI50 (RXF 631) was 8.28 µM (inactive), the GI50 (Malme-3M) was 15.2 µM (inactive) and the GI50 (RXF 393) was 5.73 µM (inactive). For the same molecule, the GI50 (SK-MEL-5) was 15.8 µM (inactive), the GI50 (SK-MEL-28) was 18.7 µM (inactive) and the GI50 (M19-MEL) was 7 µM (inactive). For the same molecule, the GI50 (CCRF-CEM) was 2.55 µM (inactive), the GI50 (OVCAR-5) was 19.4 µM (inactive) and the GI50 (XF498) was 8.95 µM (inactive).

In the case of `O=c1c2cc([N+](=O)[O-])ccc2sc2ccsc12`, the GI50 (M14) is reported as > 100 µM (inactive), the GI50 (HCC 2998) is reported as > 100 µM (inactive) and the GI50 (SW-620) is reported as > 100 µM (inactive). The GI50 (A498) was > 100 µM (inactive), the GI50 (EKVX) was > 100 µM (inactive) and the GI50 (HCT-116) was > 100 µM (inactive). The GI50 (SN12C) was > 100 µM (inactive), the GI50 (HOP-62) was > 100 µM (inactive) and the GI50 (LOX IMVI) was > 100 µM (inactive). The GI50 (OVCAR-8) was > 100 µM (inactive), the GI50 (OVCAR-3) was > 100 µM (inactive) and the GI50 (NCI-H522) was > 100 µM (inactive). The GI50 (K562) was > 100 µM (inactive), the GI50 (DLD-1) was > 100 µM (inactive) and the GI50 (HT-29) was > 100 µM (inactive). For the same molecule, the GI50 (HL-60) was > 100 µM (inactive), the GI50 (NCI-H460) was > 100 µM (inactive) and the GI50 (786-0) was > 100 µM (inactive). The GI50 (HOP-92) was > 100 µM (inactive), the GI50 (HCT-15) was greater than 100 µM and the GI50 (NCI-H226) was > 100 µM (inactive). The GI50 (SK-MEL-2) was > 100 µM (inactive), the GI50 (U-251) was > 100 µM (inactive) and the GI50 (ACHN) was > 100 µM (inactive). For the same molecule, the GI50 (SF-539) was > 100 µM (inactive), the GI50 (OVCAR-4) was > 100 µM (inactive) and the GI50 (UACC-257) was > 100 µM (inactive). The GI50 (HOP-18) was > 100 µM (inactive), the GI50 (SNB-78) was > 100 µM (inactive) and the GI50 (SK-OV-3) was > 100 µM (inactive). The GI50 (LXFL 529) was 69.3 µM (inactive), the GI50 (IGROV-1) was > 100 µM (inactive) and the GI50 (SF-268) was > 100 µM (inactive). The GI50 (SNB-75) was > 100 µM (inactive), the GI50 (COLO 205) was > 100 µM (inactive) and the GI50 (NCI-H23) was > 100 µM (inactive). For the same molecule, the GI50 (KM12) was > 100 µM (inactive), the GI50 (DMS-114) was > 100 µM (inactive) and the GI50 (MOLT-4) was > 100 µM (inactive). For the same molecule, the GI50 (UACC-62) was > 100 µM (inactive), the GI50 (A549) was > 100 µM (inactive) and the GI50 (SF-295) was > 100 µM (inactive). For the same molecule, the GI50 (KM-20L2) was > 100 µM (inactive), the GI50 (SNB-19) was > 100 µM (inactive) and the GI50 (UO-31) was > 100 µM (inactive). The GI50 (RPMI-8226) was > 100 µM (inactive), the GI50 (RXF 631) was > 100 µM (inactive) and the GI50 (Malme-3M) was > 100 µM (inactive). The GI50 (RXF 393) was > 100 µM (inactive), the GI50 (SK-MEL-5) was > 100 µM (inactive) and the GI50 (SK-MEL-28) was > 100 µM (inactive). For the same molecule, the GI50 (M19-MEL) was > 100 µM (inactive), the GI50 (CCRF-CEM) was > 100 µM (inactive) and the GI50 (OVCAR-5) was > 100 µM (inactive). The GI50 (XF498) was > 100 µM (inactive).
